# In patent publication US10766894B2, “Aza-indazole compounds for use in tendon and/or ligament injuries” (NOVARTIS AG, priority 2016, dated 2020):
# Read-outs that look alike come from different tables or passages of the source.
# Tests used:
# [1] = system: mouse immortalized TT-D6 Scx-luciferase (ScxL) cell line; transcriptional activation of Scleraxis (Scx) gene; assay: SCX-LUC in vitro assay (scleraxis promoter luciferase reporter); format: cell-based; details: Mus musculus, 96 h
# [2] = system: Scleraxis (Scx) gene expression in rat tail tendon fascicles; assay: Ex vivo assay, tendon fascicles, Scleraxis mRNA (qPCR); format: cell-based, Sprague Dawley rat; details: 96 h
# [3] = system: Tenomodulin (Tnmd) gene expression in rat tail tendon fascicles; assay: Ex vivo assay, tendon fascicles, Tenomodulin mRNA (qPCR); format: cell-based, Sprague Dawley rat; details: 96 h
# [4] = system: collagen type 1 (Col1a2) gene expression in rat tail tendon fascicles; assay: Ex vivo assay, tendon fascicles, collagen type 1 mRNA (qPCR); format: cell-based, Sprague Dawley rat; details: 96 h
# [5] = target: recombinant human Jak1 (aa 866-1154) (Homo sapiens (Human), UniProt P23458); assay: Kinase panel, substrate peptide phosphorylation (Caliper mobility shift), JAK1; format: biochemical; details: 3 nM kinase, 45 uM ATP, 60 min at 30° C.
# [6] = target: recombinant human Jak2 (aa808-1132) (Homo sapiens (Human), UniProt O60674); assay: Kinase panel, substrate peptide phosphorylation (Caliper mobility shift), JAK2; format: biochemical
# [7] = target: recombinant human Jak3 (aa811-1124) (Homo sapiens (Human), UniProt P52333); assay: Kinase panel, substrate peptide phosphorylation (Caliper mobility shift), JAK3; format: biochemical
# [8] = target: recombinant human Tyk2 (aa888-1187) (Homo sapiens (Human), UniProt P29597); assay: Kinase panel, substrate peptide phosphorylation (Caliper mobility shift), TYK2; format: biochemical; details: 3 nM kinase, 45 uM ATP, 60 min at 30° C.
# [9] = Cumulative release from PLGA microparticle formulations in PBS buffer; format: physicochemical; details: incorporated into PLGA microparticles, PBS buffer pH 7.4, 1% Tween 20
# Source text: In the current invention, the microparticles formulation contains a copolymer of DL-lactide and glycolide in a 50:50 molar ratio with an ester end group plus Test Compound A is used. The total amount of Test Compound A incorporated into the microparticles ranges from 2% to 10% (w/w). The microparticles are formulated to mean mass range in size from 5 to 25 microns. The population of microparticles is formulated to be delivered through a 22 gauges or higher needles (see Table A below). Organic solvent was used for preparation of microparticles were dichloromethane (DCM) and ethyl acetate (EA) either alone or in combination with methanol (MeOH) and/or dimethyl sulfoxide (DMSO) e.g., ratio of MeOH/DMSO from 5-15% in DCM or EA as primary solvent. Additional excipients may be added such as, but not limited to, carboxymethylcellulose sodium, mannitol and ploxamer to achieve isotonicity and promote syringeability.
# (§1) Test Compound A incorporated into the microparticles provides an initial release (burst) of about 5-10% of drug over a period of 1 to 2 days, followed by a steady state release of drug over a period of 21 days (FIG. 1). In-vivo the microparticles could extend the release of Test Compound A over 4 weeks in a rat model.
# [10] = In-vivo release from microparticles in a rat model
# Source text: as §1
# [11] = Rattus norvegicus, read-out: Ex vivo SCX (EC50 uM)
# [12] = Rattus norvegicus, read-out: Ex vivo Tnmd (EC50 uM)
# [13] = Rattus norvegicus, read-out: Ex vivo Col1a2 (EC50 uM)
# [14] = Examples table, TT-D6 Scx-luciferase cells, 1 ng/ml TGFβ1, four days, read-out: Scx-Luc (EC50 μM)
# [15] = Examples table, rat tail tendon fascicles, four days, delta-delta Ct, read-out: Ex vivo Scx (EC50 μM)
# [16] = Examples table, rat tail tendon fascicles, four days, delta-delta Ct, read-out: Ex vivo Tnmd (EC50 μM)
# [17] = Examples table, rat tail tendon fascicles, four days, delta-delta Ct, read-out: Ex vivo Col1a2 (EC50 μM)
# [18] = Table 1, TT-D6 Scx-luciferase cells, 1 ng/ml TGFβ1, four days, read-out: Scx-Luc (EC50 uM)
# Sequence of recombinant human Jak1 (aa 866-1154) (P23458 866-1154): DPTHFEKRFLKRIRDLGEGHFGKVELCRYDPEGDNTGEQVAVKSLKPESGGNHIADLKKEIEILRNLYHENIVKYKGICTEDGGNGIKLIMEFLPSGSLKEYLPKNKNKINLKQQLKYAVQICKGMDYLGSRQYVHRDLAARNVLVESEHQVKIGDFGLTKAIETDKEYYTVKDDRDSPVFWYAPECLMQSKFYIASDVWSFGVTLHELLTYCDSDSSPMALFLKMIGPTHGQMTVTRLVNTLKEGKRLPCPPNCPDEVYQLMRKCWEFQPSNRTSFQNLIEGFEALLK
# Sequence of recombinant human Tyk2 (aa888-1187) (P29597 888-1187): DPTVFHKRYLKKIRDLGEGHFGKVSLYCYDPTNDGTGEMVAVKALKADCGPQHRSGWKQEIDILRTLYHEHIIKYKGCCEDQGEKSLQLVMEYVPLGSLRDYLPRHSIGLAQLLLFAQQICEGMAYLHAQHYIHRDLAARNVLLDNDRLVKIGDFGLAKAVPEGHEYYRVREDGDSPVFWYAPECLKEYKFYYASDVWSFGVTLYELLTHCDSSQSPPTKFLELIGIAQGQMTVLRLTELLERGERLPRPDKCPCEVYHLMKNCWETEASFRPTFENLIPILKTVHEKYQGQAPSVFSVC
# Sequence of recombinant human Jak2 (aa808-1132) (O60674 808-1132): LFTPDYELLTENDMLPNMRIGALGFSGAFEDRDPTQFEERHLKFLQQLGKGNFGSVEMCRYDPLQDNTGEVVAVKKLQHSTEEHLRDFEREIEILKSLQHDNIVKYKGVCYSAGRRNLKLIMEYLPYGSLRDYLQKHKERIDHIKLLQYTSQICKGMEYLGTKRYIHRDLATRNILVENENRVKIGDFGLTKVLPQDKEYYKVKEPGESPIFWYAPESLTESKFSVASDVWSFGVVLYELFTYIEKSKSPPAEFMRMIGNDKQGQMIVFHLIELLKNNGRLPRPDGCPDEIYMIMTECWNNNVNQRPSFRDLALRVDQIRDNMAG
# Sequence of recombinant human Jak3 (aa811-1124) (P52333 811-1124 limits assumed): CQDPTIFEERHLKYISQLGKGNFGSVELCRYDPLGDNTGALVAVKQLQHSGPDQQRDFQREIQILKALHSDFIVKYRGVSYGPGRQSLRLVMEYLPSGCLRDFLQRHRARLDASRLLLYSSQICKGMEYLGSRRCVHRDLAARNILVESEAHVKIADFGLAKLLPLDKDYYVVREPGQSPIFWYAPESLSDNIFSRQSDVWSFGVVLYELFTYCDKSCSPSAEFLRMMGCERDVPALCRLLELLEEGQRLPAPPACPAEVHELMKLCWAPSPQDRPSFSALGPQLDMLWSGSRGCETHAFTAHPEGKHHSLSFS
Structure (SMILES),"EC50 [1, 14]","EC50 [2, 15]","EC50 [3, 16]","EC50 [4, 17]",other results
N#C[C@H]1C[C@@H](N2CCC2)CC[C@@H]1n1cc(C(N)=O)c(Nc2ccc(C(F)(F)F)cc2)n1 [reference compound],,,,,"EC50 ([1]; read-out: Scx-Luc (EC50 uM)): 2.05 µM; EC50 [2, 11]: 1.16 µM; EC50 [3, 12]: 0.08 µM; EC50 [4, 13]: 0.42 µM; IC50 [5]: 0.04 µM; IC50 [6]: 2.7 µM; IC50 [7]: 10 µM; IC50 [8]: 1.8 µM"
"Cc1cc(S(=O)(=O)N[C@H]2C[C@](O)(C(F)(F)F)C2)ccc1-c1ccc2[nH]nc(N)c2n1 [Example 2, 4-(3-amino-1H-pyrazolo[4,3-b]pyridin-5-yl)-N-((1s,3s)-3-hydroxy-3-(trifluoromethyl)cyclobutyl)-3-methylbenzenesulfonamide]",0.376 µM,,,,period of steady state release of drug ([9]; after initial burst): 21 days; initial release (burst) of drug ([9]; over a period of 1 to 2 days): 5-10%; extended release in-vivo [10]: 4 weeks
"Nc1n[nH]c2ccc(-c3ccc(S(=O)(=O)Nc4ccccc4)cc3Cl)nc12 [Example 38, 4-(3-amino-1H-pyrazolo[4,3-b]pyridin-5-yl)-3-chloro-N-phenylbenzenesulfonamide]",0.61 µM,0.188 µM,1.89 µM,0.396 µM,
"Cc1cc(S(=O)(=O)N(C)[C@H]2C[C@](O)(C(F)(F)F)C2)ccc1-c1ccc2[nH]nc(N)c2n1 [Example 9, 4-(3-amino-1H-pyrazolo[4,3-b]pyridin-5-yl)-N-((1s,3s)-3-hydroxy-3-(trifluoromethyl)cyclobutyl)-N,3-dimethylbenzenesulfonamide]",0.46 µM,2.27 µM,2.14 µM,0.577 µM,
"Cc1cc(S(=O)(=O)N2CC3CCCC3C2)ccc1-c1ccc2[nH]nc(N)c2n1 (stereo not shown) [Example 21, 5-(4-((hexahydrocyclopenta[c]pyrrol-2(1H)-yl)sulfonyl)-2-methylphenyl)-1H-pyrazolo[4,3-b]pyridin-3-amine]",0.598 µM,4.93 µM,3.51 µM,3.71 µM,
"CS(=O)(=O)C1CN(S(=O)(=O)c2ccc(-c3ccc4[nH]nc(N)c4n3)c(Cl)c2)C1 [Example 93, 5-(2-chloro-4-((3-(methylsulfonyl)azetidin-1-yl)sulfonyl)phenyl)-1H-pyrazolo[4,3-b]pyridin-3-amine]",5.74 µM,2.95 µM,3.52 µM,1.76 µM,
"Nc1n[nH]c2ccc(-c3ccc(S(=O)(=O)NCCO)cc3Cl)nc12 [Example 72, 4-(3-amino-1H-pyrazolo[4,3-b]pyridin-5-yl)-3-chloro-N-(2-hydroxyethyl)benzenesulfonamide]",4.09 µM,3.94 µM,3.42 µM,3.28 µM,
"Nc1n[nH]c2ccc(-c3ccc(S(=O)(=O)N[C@@H]4CCC[C@@H]4O)cc3Cl)nc12 [Example 7, 4-(3-amino-1H-pyrazolo[4,3-b]pyridin-5-yl)-3-chloro-N-((1R,2S)-2-hydroxycyclopentyl)benzenesulfonamide]",0.305 µM,1.6 µM,1.68 µM,2.06 µM,
Cc1cc(Nc2nc(N[C@@H](C)c3ncc(F)cn3)ncc2Cl)n[nH]1 [reference compound],,,,,"EC50 [1, 18]: 0.008 µM; EC50 [2, 11]: 3.37 µM; EC50 [3, 12]: 3.3 µM; EC50 [4, 13]: 2.61 µM"
"Nc1n[nH]c2ccc(-c3ccc(S(=O)(=O)N4CC(F)(F)C[C@H]4CO)cc3Cl)nc12 [Example 18, (S)-(1-((4-(3-amino-1H-pyrazolo[4,3-b]pyridin-5-yl)-3-chlorophenyl)sulfonyl)-4,4-difluoropyrrolidin-2-yl)methanol]",0.764 µM,1.77 µM,0.75 µM,1.83 µM,
"CC(O)(C1CN(S(=O)(=O)c2ccc(-c3ccc4[nH]nc(N)c4n3)c(Cl)c2)CCN1)C(F)(F)F (stereo not shown) [Example 89, 2-(4-((4-(3-amino-1H-pyrazolo[4,3-b]pyridin-5-yl)-3-chlorophenyl)sulfonyl)piperazin-2-yl)-1,1,1-trifluoropropan-2-ol]",2.19 µM,4.44 µM,5.01 µM,7.27 µM,
"Cc1cc(S(=O)(=O)Nc2ccccc2)ccc1-c1ccc2[nH]nc(N)c2n1 [Example 16, 4-(3-amino-1H-pyrazolo[4,3-b]pyridin-5-yl)-3-methyl-N-phenylbenzenesulfonamide]",0.61 µM,3.86 µM,2.81 µM,4.65 µM,
"Nc1n[nH]c2ccc(-c3ccc(S(=O)(=O)NC4CCCCC4O)cc3Cl)nc12 (stereo not shown) [Example 12, 4-(3-amino-1H-pyrazolo[4,3-b]pyridin-5-yl)-3-chloro-N-(2-hydroxycyclohexyl)benzenesulfonamide]",0.765 µM,5.79 µM,5.39 µM,4.62 µM,
O=C(Nc1nc2cccc(-c3ccc(OCc4cccnc4)cc3)n2n1)C1CC1 [reference compound],,,,,"EC50 [1, 18]: 0.02 µM; EC50 [2, 11]: 0.36 µM; EC50 [3, 12]: 5.99 µM; EC50 [4, 13]: 0.4 µM"
"Nc1n[nH]c2ccc(-c3ccc(NS(=O)(=O)c4ccc5ccccc5c4)cc3Cl)nc12 [Example 82, N-(4-(3-amino-1H-pyrazolo[4,3-b]pyridin-5-yl)-3-chlorophenyl)naphthalene-2-sulfonamide]",2.61 µM,> 10 µM,4.87 µM,7.27 µM,
"Cc1cc(S(=O)(=O)N2CC(O)(C(F)(F)F)C2)ccc1-c1ccc2[nH]nc(N)c2n1 [Example 66, 1-((4-(3-amino-1H-pyrazolo[4,3-b]pyridin-5-yl)-3-methylphenyl)sulfonyl)-3-(trifluoromethyl)azetidin-3-ol]",0.794 µM,0.89 µM,0.719 µM,0.921 µM,
N#C[C@H]1C[C@H](O)CC[C@@H]1n1cc(C(N)=O)c(Nc2ccc(C(F)(F)F)cc2)n1 [reference compound],,,,,"EC50 ([1]; read-out: Scx-Luc (EC50 uM)): 2.06 µM; EC50 [2, 11]: 5.65 µM; EC50 [3, 12]: 3.82 µM; EC50 [4, 13]: 3.97 µM; IC50 [5]: 0.004 µM; IC50 [6]: 0.15 µM; IC50 [7]: 10 µM; IC50 [8]: 0.11 µM"
"Nc1n[nH]c2ccc(-c3ccc(NS(=O)(=O)Cc4ccccc4)cc3Cl)nc12 [Example 59, N-(4-(3-amino-1H-pyrazolo[4,3-b]pyridin-5-yl)-3-chlorophenyl)-1-phenylmethanesulfonamide]",4.32 µM,> 10 µM,4.61 µM,5.71 µM,
N#C[C@@H]1C[C@H](N2CCC2)CC[C@H]1n1cc(C(N)=O)c(Nc2ccc(C(F)(F)F)cc2)n1,,,,,"EC50 [2, 11]: 5.63 µM; EC50 [3, 12]: 5.76 µM; EC50 [4, 13]: 3.65 µM; IC50 [5]: 0.002 µM; IC50 [6]: 0.24 µM; IC50 [7]: 10 µM; IC50 [8]: 0.12 µM"
"Nc1n[nH]c2ccc(-c3ccc(S(=O)(=O)NC4CS(=O)(=O)C4)cc3Cl)nc12 [Example 92, 4-(3-amino-1H-pyrazolo[4,3-b]pyridin-5-yl)-3-chloro-N-(1,1-dioxidothietan-3-yl)benzenesulfonamide]",0.968 µM,4.89 µM,6.28 µM,1.35 µM,
